Assay results reported in ChEMBL document CHEMBL1201862, “PubChem BioAssay data set” (2004).
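96-well plates; 48 h exposure; 5 concentrations. Endpoints by linear interpolation between flanking doses. Not reached: highest tested concentration assigned. At the GI50, growth is halved.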 Calls of active or inactive are those of the source. No stated cut-off is given here; in the data, active = GI50 up to about 1.1 µM and inactive = higher.

Tests used:
Test in all cases: NCI anticancer screen, dose series, 48 h
TK-10 = tested on: TK-10
OVCAR-5 = tested on: OVCAR-5
NCI-H460 = tested on: NCI-H460
A549 = tested on: A549
HOP-92 = tested on: HOP-92
CAKI-1 = tested on: CAKI-1
HCC 2998 = tested on: HCC 2998
IGROV-1 = tested on: IGROV-1
MCF7 = tested on: MCF7
OVCAR-4 = tested on: OVCAR-4
SN12C = tested on: SN12C
PC-3 = tested on: PC-3
MOLT-4 = tested on: MOLT-4
RXF 393 = tested on: RXF 393
DU-145 = tested on: DU-145
UO-31 = tested on: UO-31
OVCAR-3 = tested on: OVCAR-3
NCI-H23 = tested on: NCI-H23
CCRF-CEM = tested on: CCRF-CEM
NCI-H522 = tested on: NCI-H522

SMILES | GI50 (TK-10) | GI50 (OVCAR-5) | GI50 (NCI-H460) | GI50 (A549) | GI50 (HOP-92) | GI50 (CAKI-1) | GI50 (HCC 2998) | GI50 (IGROV-1) | GI50 (MCF7) | GI50 (OVCAR-4) | GI50 (SN12C) | GI50 (PC-3) | GI50 (MOLT-4) | GI50 (RXF 393) | GI50 (DU-145) | GI50 (UO-31) | GI50 (OVCAR-3) | GI50 (NCI-H23) | GI50 (CCRF-CEM) | GI50 (NCI-H522)
COc1ccc(-n2c3c(c4c(CN(C)C)c(O)ccc42)C(=O)c2ccccc2C3=O)cc1 | 17.6 µM (inactive) | 4.92 µM (inactive) | 4.24 µM (inactive) | 4.68 µM (inactive) | 16 µM (inactive) | 14.2 µM (inactive) | 2.77 µM (inactive) | 3.99 µM (inactive) | 7.18 µM (inactive) | 2.37 µM (inactive) | 2.82 µM (inactive) | 13 µM (inactive) | 3 µM (inactive) | 4.63 µM (inactive) | 12.9 µM (inactive) | 1.96 µM (inactive) | 13.5 µM (inactive) | 12.7 µM (inactive) | 2.99 µM (inactive) | 12.3 µM (inactive)
O=S(=O)(c1ccc(/N=C2\NC(c3ccc(O)cc3)(c3ccccc3O)c3ccccc32)cc1)c1ccc(/N=C2/NC(c3ccc(O)cc3)(c3ccccc3O)c3ccccc32)cc1 (stereo not given) | 13.8 µM (inactive) | 9.27 µM (inactive) | 3.7 µM (inactive) | 6.15 µM (inactive) | 3.91 µM (inactive) | 12.9 µM (inactive) | 4.63 µM (inactive) | 2.68 µM (inactive) | 3.95 µM (inactive) | 2.87 µM (inactive) | 3.78 µM (inactive) | 5.05 µM (inactive) | 4.04 µM (inactive) | 4.02 µM (inactive) | 4.65 µM (inactive) | 21.5 µM (inactive) | 4.74 µM (inactive) | 2.62 µM (inactive) | 3.37 µM (inactive) | 2.02 µM (inactive)
c1ccc2c(c1)Nc1ccccc1[P+]21c2ccccc2Nc2ccccc21 | 0.581 µM (active) | 0.281 µM (active) | 0.146 µM (active) | 0.182 µM (active) | 0.123 µM (active) | 1.61 µM (inactive) | 0.313 µM (active) | 0.27 µM (active) | 0.489 µM (active) | 0.447 µM (active) | 0.13 µM (active) | 0.169 µM (active) | 0.0525 µM (active) | 0.303 µM (active) | 0.318 µM (active) | 5.46 µM (inactive) | 0.195 µM (active) | 0.175 µM (active) | 0.158 µM (active) | 0.179 µM (active)
COc1ccc(C2CC(c3c(C)nn(-c4ccccc4)c3-c3ccc(C)cc3O)=NN2c2ccccc2)cc1 (stereo not given) | > 100 µM (inactive) | > 35.1 µM (inactive) | 3.42 µM (inactive) | 4.35 µM (inactive) | > 100 µM (inactive) | 38.9 µM (inactive) | 12 µM (inactive) | 49.3 µM (inactive) | 8.07 µM (inactive) | > 45.7 µM (inactive) | > 100 µM (inactive) | 3.78 µM (inactive) | 4.65 µM (inactive) | 8.13 µM (inactive) | > 79.3 µM (inactive) | 24.7 µM (inactive) | > 50.5 µM (inactive) | 3.79 µM (inactive) | 6.05 µM (inactive) | 24.8 µM (inactive)
Nc1ccc(Oc2ccc(C34CC5CC6C3CC3CC4C(C5)C6(c4ccc(Oc5ccc(N)c(O)c5)cc4)C3)cc2)cc1O | 4.92 µM (inactive) | 2 µM (inactive) | 3.56 µM (inactive) | 1.9 µM (inactive) | 1.35 µM (inactive) | 4.5 µM (inactive) | 1.87 µM (inactive) | 5.14 µM (inactive) | 4.55 µM (inactive) | 4.27 µM (inactive) | 1.72 µM (inactive) | 1.66 µM (inactive) | 2.29 µM (inactive) | 4.13 µM (inactive) | 4.73 µM (inactive) | 2.42 µM (inactive) | 1.47 µM (inactive) | 3.55 µM (inactive) | 3.33 µM (inactive) | 1.61 µM (inactive)
CCOC(=O)CC[C@H](N)C(=O)N[C@@H](Cc1ccc(N(CCCl)CCCl)cc1)C(=O)OCC | 1.47 µM (inactive) | 2.39 µM (inactive) | 0.0364 µM (active) | 2.73 µM (inactive) | 0.475 µM (active) | 0.358 µM (active) | 1.25 µM (inactive) | 1.56 µM (inactive) | 0.483 µM (active) | 0.565 µM (active) | 2.15 µM (inactive) | 1.29 µM (inactive) | 0.0345 µM (active) | 0.658 µM (active) | 0.324 µM (active) | 0.807 µM (active) | 0.652 µM (active) | 0.278 µM (active) | < 0.0308 µM (active) | 1.12 µM (active)
O=[N+]([O-])c1ccc(Cl)cc1C1ON=C(c2ccccc2)N1C12CC3CC(CC(C3)C1)C2 (stereo not given) | > 100 µM (inactive) | > 100 µM (inactive) | > 100 µM (inactive) | > 100 µM (inactive) | > 100 µM (inactive) | > 100 µM (inactive) | > 100 µM (inactive) | > 100 µM (inactive) | > 100 µM (inactive) | > 100 µM (inactive) | > 100 µM (inactive) | > 100 µM (inactive) | > 100 µM (inactive) | > 100 µM (inactive) | > 100 µM (inactive) | > 100 µM (inactive) | 97.7 µM (inactive) | > 100 µM (inactive) | > 100 µM (inactive) | > 100 µM (inactive)
Cc1nc2sc(C(=O)c3ccc(Cl)cc3)c(N)c2c(-c2ccccc2Cl)c1C(=O)Nc1ccccc1 | 6.76 µM (inactive) | 16 µM (inactive) | 9.02 µM (inactive) | 9.06 µM (inactive) | 3.08 µM (inactive) | 12 µM (inactive) | 23.6 µM (inactive) | 19 µM (inactive) | 15.2 µM (inactive) | 16.5 µM (inactive) | 9.42 µM (inactive) | 19 µM (inactive) | 14 µM (inactive) | 14.7 µM (inactive) | 19.1 µM (inactive) | 17.3 µM (inactive) | 16.4 µM (inactive) | 16.6 µM (inactive) | 3.77 µM (inactive) | 5.51 µM (inactive)
CCOC(=O)c1cc2c(C(=O)c3ccc([N+](=O)[O-])cc3)c(C(C)=O)ccc2[nH]1 | 22.2 µM (inactive) | > 100 µM (inactive) | 82.6 µM (inactive) | 39.4 µM (inactive) | 13.2 µM (inactive) | 18.3 µM (inactive) | > 100 µM (inactive) | 26.9 µM (inactive) | > 100 µM (inactive) | 5.52 µM (inactive) | 72.8 µM (inactive) | > 100 µM (inactive) | > 100 µM (inactive) | 15.2 µM (inactive) | 32.7 µM (inactive) | > 100 µM (inactive) | > 100 µM (inactive) | 50.2 µM (inactive) | > 100 µM (inactive) | 8.2 µM (inactive)
O=c1c2cc([N+](=O)[O-])ccc2n(Cc2ccccc2)n1Cc1ccccc1 | 22.8 µM (inactive) | > 31.6 µM (inactive) | 11.8 µM (inactive) | 18.6 µM (inactive) | 14.2 µM (inactive) | 22.2 µM (inactive) | 17.9 µM (inactive) | 20.8 µM (inactive) | 14 µM (inactive) | 12.3 µM (inactive) | 20.5 µM (inactive) | 12 µM (inactive) | 11.8 µM (inactive) | 24.9 µM (inactive) | 17.3 µM (inactive) | 12.4 µM (inactive) | 15.6 µM (inactive) | 13.1 µM (inactive) | 14.7 µM (inactive) | 12 µM (inactive)
CCCCCCc1cc2cc(C(=O)Nc3ccccc3)c(=N)oc2cc1O | 6.78 µM (inactive) | > 83.6 µM (inactive) | 3.24 µM (inactive) | 3.27 µM (inactive) | 3.25 µM (inactive) | 4.58 µM (inactive) | 3.46 µM (inactive) | 2.92 µM (inactive) | 4.35 µM (inactive) | 4.13 µM (inactive) | 2.42 µM (inactive) | 2.86 µM (inactive) | 2.16 µM (inactive) | 5.56 µM (inactive) | 4.82 µM (inactive) | 2.82 µM (inactive) | 2.09 µM (inactive) | 2.36 µM (inactive) | 3.47 µM (inactive) | 1.94 µM (inactive)
Nc1ccc2c(c1)N(C(=O)c1cc3cc(NC(=O)c4cc5ccccc5o4)ccc3[nH]1)CC2CCl (stereo not given) | 0.283 µM (active) | 0.114 µM (active) | 0.0205 µM (active) | 0.0299 µM (active) | 0.168 µM (active) | 0.0338 µM (active) | 0.0724 µM (active) | 0.108 µM (active) | 0.0221 µM (active) | 0.0605 µM (active) | 0.215 µM (active) | 0.0671 µM (active) | 0.045 µM (active) | 0.018 µM (active) | 0.0254 µM (active) | 0.0296 µM (active) | 0.0743 µM (active) | 0.0211 µM (active) | 0.0405 µM (active) | < 0.01 µM (active)
OC1c2ccccc2CCC1C(O)(C(F)(F)F)C(F)(F)F (stereo not given) | > 100 µM (inactive) | > 100 µM (inactive) | > 100 µM (inactive) | > 100 µM (inactive) | 35.1 µM (inactive) | > 100 µM (inactive) | > 100 µM (inactive) | > 100 µM (inactive) | 46.3 µM (inactive) | > 100 µM (inactive) | > 100 µM (inactive) | > 100 µM (inactive) | > 100 µM (inactive) | > 100 µM (inactive) | > 100 µM (inactive) | > 100 µM (inactive) | 58.6 µM (inactive) | 85.1 µM (inactive) | > 100 µM (inactive) | > 100 µM (inactive)
CCOC(=S)SC/C(=N\OC(C)(C)OC)c1ccccc1 | 46.6 µM (inactive) | 40.4 µM (inactive) | 35 µM (inactive) | 44.7 µM (inactive) | 20.7 µM (inactive) | > 100 µM (inactive) | 26.9 µM (inactive) | 46.5 µM (inactive) | 29.2 µM (inactive) | 69 µM (inactive) | 89.7 µM (inactive) | 59.4 µM (inactive) | 20 µM (inactive) | 25.6 µM (inactive) | > 100 µM (inactive) | 31.2 µM (inactive) | 41.1 µM (inactive) | 31.7 µM (inactive) | 18.1 µM (inactive) | 24.1 µM (inactive)
